Source: patent US8575091B1, “Amylin analogues and pharmaceutical compositions thereof” (Novo Nordisk A/S, priority 2012, dated 2013)
Where two headings read alike, the source gives them in different places. Numbered stars: 1 amine (or outer) side, 2 acyl side, 3 side chain; on linkers, the order of the positions; unused ones are H or OH. Bridge positions count the residues as written; N and C are the ends. Peptide text beside a SMILES is read from it. * marks the point of attachment. C20 diacid = O=C(O)CCCCCCCCCCCCCCCCCCC(=O)*; γGlu = O=C(O)[C@H](CCC(=O)[*:2])N[*:1]

Tests used:
[1] = biological target: T1, human amylin receptor (amylin 3(a) receptor: human calcitonin receptor + RAMP-3) (Homo sapiens, UniProt O60896+P30988); assay: Assay (II)a functional assay, human amylin receptor (CRE luciferase, BHK cells); format: cell-based; details: for EC50: read-out: hAmylin-R funct. EC50
T1 construct: expressed in transfected cells
T1 sequence (P30988 25-474): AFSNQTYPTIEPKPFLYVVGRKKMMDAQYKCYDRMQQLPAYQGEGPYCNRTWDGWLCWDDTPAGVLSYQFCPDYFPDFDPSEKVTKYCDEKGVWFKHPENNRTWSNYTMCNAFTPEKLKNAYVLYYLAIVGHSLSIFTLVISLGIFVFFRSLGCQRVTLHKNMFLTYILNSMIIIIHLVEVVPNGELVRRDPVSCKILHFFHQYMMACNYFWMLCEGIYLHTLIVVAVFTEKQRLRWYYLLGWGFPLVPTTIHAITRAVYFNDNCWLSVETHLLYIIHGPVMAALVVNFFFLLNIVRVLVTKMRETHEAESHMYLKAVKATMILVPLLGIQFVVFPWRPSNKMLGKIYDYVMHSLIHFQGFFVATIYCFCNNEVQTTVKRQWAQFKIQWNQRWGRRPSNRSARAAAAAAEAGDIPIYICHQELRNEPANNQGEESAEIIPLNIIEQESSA
T1 sequence (O60896 24-148 partner): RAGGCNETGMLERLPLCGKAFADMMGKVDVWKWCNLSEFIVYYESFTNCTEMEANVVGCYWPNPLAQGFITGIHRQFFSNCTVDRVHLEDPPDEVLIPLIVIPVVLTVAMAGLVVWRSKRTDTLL

[2] = biological target: T2, human calcitonin receptor (Homo sapiens, UniProt P30988); assay: Assay (II)a functional assay, human calcitonin receptor (CRE luciferase, BHK cells);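 note: luminescence from a CRE-driven luciferase reporter, read by single photon counting after cells were exposed to test samples for 3 h at 37 °C under 5% CO2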; format: cell-based; details: read-out: hCTR funct. EC50
T2 construct: expressed in transfected cells
T2 sequence (P30988 25-474): T1 sequence (P30988 25-474)

human amylin receptor = biological target: T3, human amylin receptor (Homo sapiens, UniProt O60896+P30988); assay: Assay (V) binding to the human amylin receptor (SPA, 125I-rat amylin); details: for IC50: human amylin receptor membranes, SPA, read-out: hAmylin-R bind IC50
T3 construct: expressed in transfected cells
T3 sequence (P30988 25-474): T1 sequence (P30988 25-474)
T3 sequence (O60896 24-148 partner): T1 sequence (O60896 24-148 partner)
In short: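 SPA competition binding on membranes from Amylin 3(a)/CRE-luc cells, 35 ng/μL membranes with 0.05 mg/well beads. Buffer 50 mM Hepes pH 7.4, 1 mM CaCl2, 5 mM MgCl2, 0.1% OA, 0.02% Tween20. IC50 from one-site competition fit as affinity measure.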

[3] = biological target: T2, human calcitonin receptor; assay: Assay (VII) binding to the human calcitonin receptor (SPA, 125I-Calcitonin); details: read-out: hCTR bind IC50;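 note: cell membranes coupled to SPA beads, competitive displacement read by scintillation counting, IC50 derived from a one-site competition fit as a measure of receptor affinity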
[4] = Table 6, human functional selectivity (hCTR EC50 / hAmylin-R EC50)
[5] = Table 6a, human functional selectivity (hCTR EC50 / hAmylin-R EC50), at least 5
[6] = Table 6j, hCTR funct. EC50 / hAmylin-R funct. EC50
[7] = Table 6k, hCTR funct. EC50 / hAmylin-R funct. EC50
[8] = functional assay, human amylin receptor
[9] = Table 7b, human calcitonin receptor binding IC50 divided by human amylin receptor binding IC50
[10] = Table 7c, human calcitonin receptor binding IC50 divided by human amylin receptor binding IC50
[11] = human binding ratio, included for comparison

Compound | Ratio hCT/hAmylin funct. [1, 4] | Ratio hCT/hAmylin funct. [1, 5] | Ratio hCT/hAmylin funct. ([1]; Table 6i, hCTR funct. EC50 / hAmylin-R funct. EC50) | EC50 ([1]; Table 6i, human amylin receptor functional) | Ratio hCT/hAmylin funct. [1, 6] | Ratio hCT/hAmylin funct. [1, 7] | EC50 [2] | IC50 (human amylin receptor) | IC50 [3] | EC50 [1, 8] | Ratio hCT/hAmylin binding (human amylin receptor; [9]) | Ratio hCT/hAmylin binding (human amylin receptor; [10]) | Ratio hCT/hAmylin binding (human amylin receptor; [11])
CC[C@H](C)[C@H](NC(=O)[C@H](C)NC(=O)CNC(=O)[C@H](Cc1ccccc1)NC(=O)[C@H](CC(N)=O)NC(=O)[C@@H]1CCCN1C(=O)[C@H](CO)NC(=O)[C@H](CO)NC(=O)[C@H](Cc1c[nH]cn1)NC(=O)[C@H](CCCNC(=N)N)NC(=O)[C@H](CC(C)C)NC(=O)[C@H](Cc1ccccc1)NC(=O)[C@H](CCC(=O)O)NC(=O)[C@H](C)NC(=O)[C@H](CC(C)C)NC(=O)[C@H](CCCNC(=N)N)NC(=O)[C@H](CCC(N)=O)NC(=O)[C@@H](NC(=O)[C@H](C)NC(=O)[C@@H]1CSSC[C@H](NC(=O)[C@H](CCCCN)NC(=O)CC[C@H](NC(=O)CCCCCCCCCCCCCCCCCCC(=O)O)C(=O)O)C(=O)N[C@@H](CC(N)=O)C(=O)N[C@@H]([C@@H](C)O)C(=O)N[C@@H](C)C(=O)N[C@@H]([C@@H](C)O)C(=O)N1)[C@@H](C)O)C(=O)N1CCC[C@H]1C(=O)N[C@@H](CO)C(=O)N[C@@H](CO)C(=O)N[C@H](C(=O)N[C@@H](CC(N)=O)C(=O)N[C@H](C(=O)NCC(=O)N[C@@H](CO)C(=O)N[C@@H](CCCNC(=N)N)C(=O)N[C@H](C(=O)N[C@@H](Cc1ccc(O)cc1)C(N)=O)[C@@H](C)O)C(C)C)[C@@H](C)O [Example 16] ({C20 diacid-γGlu}-KCNTATCATQRLAEFLRHSSPNFGAIPSSTNVGSRTY-NH2; disulfide 2-7) | 6.1 | 6.1 | 6.1 | 0.363 nM | 6.1 | 6.1 | 2.21 nM | 0.894 nM | 17.1 nM | – | – | – | –
CC[C@H](C)[C@H](NC(=O)[C@H](C)NC(=O)CNC(=O)[C@H](Cc1ccccc1)NC(=O)[C@H](CC(N)=O)NC(=O)[C@@H]1CCCN1C(=O)[C@H](CO)NC(=O)[C@H](CO)NC(=O)[C@H](Cc1c[nH]cn1)NC(=O)[C@H](CCCNC(=N)N)NC(=O)[C@H](CC(C)C)NC(=O)[C@H](Cc1ccccc1)NC(=O)[C@H](CCC(=O)O)NC(=O)[C@H](C)NC(=O)[C@H](CC(C)C)NC(=O)[C@H](CCCNC(=N)N)NC(=O)[C@H](CCC(N)=O)NC(=O)[C@@H](NC(=O)[C@H](C)NC(=O)[C@@H]1CSSC[C@H](NC(=O)[C@H](CCCCN)NC(=O)COCCOCCNC(=O)COCCOCCNC(=O)CC[C@H](NC(=O)CCCCCCCCCCCCCCCCCCC(=O)O)C(=O)O)C(=O)N[C@@H](CC(N)=O)C(=O)N[C@@H]([C@@H](C)O)C(=O)N[C@@H](C)C(=O)N[C@@H]([C@@H](C)O)C(=O)N1)[C@@H](C)O)C(=O)N1CCC[C@H]1C(=O)N[C@@H](CO)C(=O)N[C@@H](CO)C(=O)N[C@H](C(=O)N[C@@H](CC(N)=O)C(=O)N[C@H](C(=O)NCC(=O)N[C@@H](CO)C(=O)N[C@@H](CC(N)=O)C(=O)N[C@H](C(=O)N[C@@H](Cc1ccc(O)cc1)C(N)=O)[C@@H](C)O)C(C)C)[C@@H](C)O [Example 19] | – | – | – | – | – | – | 5.32 nM | 0.556 nM | 20.4 nM | 0.307 nM | – | – | –
CC[C@H](C)[C@H](NC(=O)[C@H](C)NC(=O)CNC(=O)[C@H](Cc1ccccc1)NC(=O)[C@H](CC(N)=O)NC(=O)[C@@H]1CCCN1C(=O)[C@H](CO)NC(=O)[C@H](CO)NC(=O)[C@H](Cc1c[nH]cn1)NC(=O)[C@H](CCCNC(=N)N)NC(=O)[C@H](CC(C)C)NC(=O)[C@H](Cc1ccccc1)NC(=O)[C@H](CCC(=O)O)NC(=O)[C@H](C)NC(=O)[C@H](CC(C)C)NC(=O)[C@H](CCCNC(=N)N)NC(=O)[C@H](CCC(N)=O)NC(=O)[C@@H](NC(=O)[C@H](C)NC(=O)[C@@H]1CSSC[C@H](NC(=O)[C@H](CCCCN)NC(=O)CC[C@H](NC(=O)CCCCCCCCCCCCCCCCCCC(=O)O)C(=O)O)C(=O)N[C@@H](CC(N)=O)C(=O)N[C@@H]([C@@H](C)O)C(=O)N[C@@H](C)C(=O)N[C@@H]([C@@H](C)O)C(=O)N1)[C@@H](C)O)C(=O)N1CCC[C@H]1C(=O)N[C@@H](CO)C(=O)N[C@@H](CO)C(=O)N[C@H](C(=O)N[C@@H](CC(N)=O)C(=O)N[C@H](C(=O)NCC(=O)N[C@@H](CO)C(=O)N[C@@H](CCC(=O)O)C(=O)N[C@H](C(=O)N[C@@H](Cc1ccc(O)cc1)C(N)=O)[C@@H](C)O)C(C)C)[C@@H](C)O [Example 22] ({C20 diacid-γGlu}-KCNTATCATQRLAEFLRHSSPNFGAIPSSTNVGSETY-NH2; disulfide 2-7) | 3.8 | – | – | – | – | – | 1.03 nM | 0.794 nM | 9.73 nM | 0.27 nM | – | – | –
CC[C@H](C)[C@H](NC(=O)[C@H](C)NC(=O)CNC(=O)[C@H](Cc1ccccc1)NC(=O)[C@H](CC(N)=O)NC(=O)[C@@H]1CCCN1C(=O)[C@H](CO)NC(=O)[C@H](CO)NC(=O)[C@H](Cc1c[nH]cn1)NC(=O)[C@H](CCCNC(=N)N)NC(=O)[C@H](CC(C)C)NC(=O)[C@H](Cc1ccccc1)NC(=O)[C@H](CC(N)=O)NC(=O)[C@H](C)NC(=O)[C@H](CC(C)C)NC(=O)[C@H](CCCNC(=N)N)NC(=O)[C@H](CCC(N)=O)NC(=O)[C@@H](NC(=O)[C@H](C)NC(=O)[C@@H]1CSSC[C@H](NC(=O)[C@H](CCCCN)NC(=O)CC[C@H](NC(=O)CCCCCCCCCCCCCCCCCCC(=O)O)C(=O)O)C(=O)N[C@@H](CC(N)=O)C(=O)N[C@@H]([C@@H](C)O)C(=O)N[C@@H](C)C(=O)N[C@@H]([C@@H](C)O)C(=O)N1)[C@@H](C)O)C(=O)N1CCC[C@H]1C(=O)N[C@@H](CO)C(=O)N[C@@H](CO)C(=O)N[C@H](C(=O)N[C@@H](CC(N)=O)C(=O)N[C@H](C(=O)NCC(=O)N[C@@H](CO)C(=O)N[C@@H](CCC(=O)O)C(=O)N[C@H](C(=O)N[C@@H](Cc1ccc(O)cc1)C(N)=O)[C@@H](C)O)C(C)C)[C@@H](C)O [Example 23] | 8.9 | 8.9 | – | – | 8.9 | 8.9 | 3.02 nM | 0.871 nM | 21.8 nM | 0.34 nM | 25.0 | 25.0 | 25.0
CC[C@H](C)[C@H](NC(=O)[C@H](C)NC(=O)CNC(=O)[C@H](Cc1ccccc1)NC(=O)[C@H](CC(N)=O)NC(=O)[C@@H]1CCCN1C(=O)[C@H](CO)NC(=O)[C@H](CO)NC(=O)[C@H](Cc1c[nH]cn1)NC(=O)[C@H](CCCNC(=N)N)NC(=O)[C@H](CC(C)C)NC(=O)[C@H](Cc1ccccc1)NC(=O)[C@H](CC(N)=O)NC(=O)[C@H](C)NC(=O)[C@H](CC(C)C)NC(=O)[C@H](CCCNC(=N)N)NC(=O)[C@H](CCC(N)=O)NC(=O)[C@@H](NC(=O)[C@H](C)NC(=O)[C@@H]1CSSC[C@H](NC(=O)[C@H](CCCCN)NC(=O)COCCOCCNC(=O)COCCOCCNC(=O)CC[C@H](NC(=O)CCCCCCCCCCCCCCCCCCC(=O)O)C(=O)O)C(=O)N[C@@H](CC(N)=O)C(=O)N[C@@H]([C@@H](C)O)C(=O)N[C@@H](C)C(=O)N[C@@H]([C@@H](C)O)C(=O)N1)[C@@H](C)O)C(=O)N1CCC[C@H]1C(=O)N[C@@H](CO)C(=O)N[C@@H](CO)C(=O)N[C@H](C(=O)N[C@@H](CC(N)=O)C(=O)N[C@H](C(=O)NCC(=O)N[C@@H](CO)C(=O)N[C@@H](CC(N)=O)C(=O)N[C@H](C(=O)N[C@@H](Cc1ccc(O)cc1)C(N)=O)[C@@H](C)O)C(C)C)[C@@H](C)O [Example 24] | – | – | – | – | – | – | 10 nM | 1.14 nM | 102 nM | 0.433 nM | 90.0 | 90.0 | 90.0
